According to patent US4272437A, “Antibacterial agents, and 4-thio azetidinone intermediates” (priority 1979, dated 1981):
Values after ≈ are worked out from the molar mass of the structure shown. Where two headings read alike, the source gives them in different places.

Assays:
Str. pneumoniae A-9585 = assay: MIC, tube dilution, Streptococcus pneumoniae A9585; format: cell-based; conditions: Streptococcus pneumoniae, A9585, Str. pneumoniae A9585; overnight 37° C., Nutrient Broth; read-out: Minimum Inhibitory Concentration (M.I.C.)
From the text: (§1) Representative compounds of the present invention were subjected to in vitro antibiotic screening against a variety of microorganisms.

Str. pyogenes A-9604 = assay: MIC, tube dilution, Streptococcus pyogenes A9604; format: cell-based; conditions: Streptococcus pyogenes, A9604, Str. pyogenes A9604; overnight 37° C., Nutrient Broth; read-out: Minimum Inhibitory Concentration (M.I.C.)
From the text: as §1

Staph. aureus A-9537 = assay: MIC, tube dilution, Staphylococcus aureus A9537; format: cell-based; conditions: Staphylococcus aureus, A9537, Staph. aureus A9537; overnight 37° C., Nutrient Broth; read-out: Minimum Inhibitory Concentration (M.I.C.)
From the text: as §1

[1] = test system: Staph. aureus A-9537 and 50% serum; assay: MIC, tube dilution, Staph. aureus A9537 + 50% serum; format: cell-based, Staphylococcus aureus; conditions: Staphylococcus aureus, overnight 37° C., read-out: Minimum Inhibitory Concentration (M.I.C.)
From the text: as §1

[2] = test system: Staph. aureus (Pen-Res) A-9606; assay: MIC, tube dilution, Staphylococcus aureus A9606 (Pen-Res); format: cell-based; conditions: Staphylococcus aureus, overnight 37° C.
From the text: as §1

[3] = test system: Staph. aureus (Meth-Res) A-15097; assay: MIC, tube dilution, Staphylococcus aureus A15097 (Meth-Res); format: cell-based; conditions: overnight 37° C.; for MIC: Staphylococcus aureus
From the text: as §1

Str. faecalis A-20688 = assay: MIC, tube dilution, Streptococcus faecalis A20688; format: cell-based; conditions: Enterococcus faecalis, A20688, Str. faecalis A20688; overnight 37° C.; read-out: Minimum Inhibitory Concentration (M.I.C.)
From the text: as §1

E. coli A-15119 = assay: MIC, tube dilution, Escherichia coli A15119; format: cell-based; conditions: Escherichia coli, A15119, E. coli A15119; overnight 37° C.; read-out: Minimum Inhibitory Concentration (M.I.C.)
From the text: as §1

E. coli A-20341-1 = assay: MIC, tube dilution, Escherichia coli A20341-1; format: cell-based
From the text: as §1

K. pneumoniae A-15130 = assay: MIC, tube dilution, Klebsiella pneumoniae A15130; format: cell-based; conditions: Klebsiella pneumoniae, A15130, K. pneumoniae A15130; overnight 37° C.; read-out: Minimum Inhibitory Concentration (M.I.C.)
From the text: as §1

[4] = test system: Klebsiella species A20468; assay: MIC, tube dilution, Klebsiella species A20468; format: cell-based; conditions: Klebsiella species (K. pneumoniae) A20468; overnight 37° C.; read-out: Minimum Inhibitory Concentration (M.I.C.)
From the text: as §1

Pr. mirabilis A-9900 = assay: MIC, tube dilution, Proteus mirabilis A9900; format: cell-based; conditions: Proteus mirabilis, A9900, Proteus mirabilis A9900; overnight 37° C.; read-out: Minimum Inhibitory Concentration (M.I.C.)
From the text: as §1

Pr. morganii A-15153 = assay: MIC, tube dilution, Proteus morganii A15153; format: cell-based; conditions: Morganella morganii, A15153, Proteus morganii A15153; overnight 37° C.; read-out: Minimum Inhibitory Concentration (M.I.C.)
From the text: as §1

Ser. marcescens A-20019 = assay: MIC, tube dilution, Serratia marcescens A20019; format: cell-based; conditions: Serratia marcescens, A20019, Serratia marcescens A20019; overnight 37° C.; read-out: Minimum Inhibitory Concentration (M.I.C.)
From the text: as §1

Ent. cloacae A-9659 = assay: MIC, tube dilution, Enterobacter cloacae A9659; format: cell-based; conditions: Enterobacter cloacae, A9659, Enterobacter cloacae A9659; overnight 37° C.; read-out: Minimum Inhibitory Concentration (M.I.C.)
From the text: as §1

Proteus rettgeri A21203 = assay: MIC, tube dilution, Proteus rettgeri A21203; format: cell-based; conditions: Providencia rettgeri, overnight 37° C., read-out: Minimum Inhibitory Concentration (M.I.C.)
From the text: as §1

Proteus vulgaris A21559 = assay: MIC, tube dilution, Proteus vulgaris A21559; format: cell-based; conditions: Proteus vulgaris, A21559, Proteus vulgaris A21559; overnight 37° C.; read-out: Minimum Inhibitory Concentration (M.I.C.)
From the text: as §1

S. aureus A9537 = assay: In vivo protection of mice, lethal infection with S. aureus A9537; conditions: Staphylococcus aureus, A9537, im, IM, 2 treatments, read-out: PD50
Experimental: Representative compounds of the present invention were also tested in vivo in mice and their PD50 (dose of compound in mg/kg required to protect 50% of the treated mice against an otherwise lethal infection of a micro-organism) values determined with respect to the test organisms shown below.

Ent. cloacae A-9656 = assay: MIC, tube dilution, Enterobacter cloacae A9656; format: cell-based; conditions: overnight 37° C., read-out: Minimum Inhibitory Concentration (M.I.C.)
From the text: as §1

Ps. aeruginosa A-9843A = assay: MIC, tube dilution, Pseudomonas aeruginosa A9843A; format: cell-based; conditions: Pseudomonas aeruginosa, A9843A, read-out: Minimum Inhibitory Concentration (M.I.C.), Pseudomonas aeruginosa A9843A; overnight 37° C.
From the text: as §1

Pr. vulgaris A-9716 = assay: MIC, tube dilution, Proteus vulgaris / Proteus mirabilis A9716; format: cell-based, Proteus vulgaris (name changed to Proteus mirabilis); conditions: Proteus vulgaris, A9716, read-out: Minimum Inhibitory Concentration (M.I.C.), Proteus vulgaris / Proteus mirabilis A9716; overnight 37° C.
From the text: as §1

Ps. aeruginosa A-21213 = assay: MIC, tube dilution, Pseudomonas aeruginosa A21213; format: cell-based; conditions: Pseudomonas aeruginosa A21213; overnight 37° C.; read-out: Minimum Inhibitory Concentration (M.I.C.)
From the text: as §1

[5] = Staph. aureus A9606 (Pen-Res), read-out: Minimum Inhibitory Concentration (M.I.C.)
[6] = Staph. aureus A15097 (Meth-Res), read-out: Minimum Inhibitory Concentration (M.I.C.)
[7] = Escherichia coli, A203411, E. coli A20341-1; overnight 37° C.; read-out: Minimum Inhibitory Concentration (M.I.C.)
[8] = A21203, Proteus rettgeri A21203
[9] = Enterobacter cloacae, A9656, Enterobacter cloacae A9656
[10] = read-out: Minimum Inhibitory Concentration (M.I.C.), Staph. aureus A9606 (Pen-Res)
[11] = read-out: Minimum Inhibitory Concentration (M.I.C.), Staph. aureus A15097 (Meth-Res)
[12] = Escherichia coli, A203411; E. coli A20341-1; overnight 37° C.; read-out: Minimum Inhibitory Concentration (M.I.C.)

Compound	MIC (Str. pneumoniae A-9585)	MIC (Str. pyogenes A-9604)	MIC (Staph. aureus A-9537)	MIC [1]	MIC [2, 5]	MIC [3, 6]	MIC (Str. faecalis A-20688)	MIC (E. coli A-15119)	MIC (E. coli A-20341-1; [7])	MIC (K. pneumoniae A-15130)	MIC [4]	MIC (Pr. mirabilis A-9900)	MIC (Pr. morganii A-15153)	MIC (Ser. marcescens A-20019)	MIC (Ent. cloacae A-9659)	MIC (Proteus rettgeri A21203; [8])	MIC (Proteus vulgaris A21559)	ED50 (S. aureus A9537; 8 × 10^5 organisms)	MIC (Ent. cloacae A-9656; [9])	MIC (Ps. aeruginosa A-9843A)	further results
NCC1CC1C1=C(C(=O)O)N2C(=O)CC2S1 [Example 79, (1'R,2'S,5S and 1'S,2'R,5S; 1'S,2'R,5R and 1'R,2'S,5S) 2-(trans-2-aminomethyl-1-cyclopropyl)-penem-3-carboxylic acid]	0.016 µg/mL (≈ 0.0666 µM)	0.03 µg/mL (≈ 0.125 µM)	0.06 µg/mL (≈ 0.25 µM)	0.25 µg/mL	0.5 µg/mL (≈ 2.08 µM)	> 63 µg/mL	16 µg/mL (≈ 66.6 µM)	4 µg/mL (≈ 16.6 µM)	16 µg/mL (≈ 66.6 µM)	16 µg/mL (≈ 66.6 µM)	> 63 µg/mL	8 µg/mL (≈ 33.3 µM)	16 µg/mL (≈ 66.6 µM)	8 µg/mL (≈ 33.3 µM)	32 µg/mL (≈ 133 µM)	8 µg/mL (≈ 33.3 µM)	16 µg/mL (≈ 66.6 µM)	0.8 mg/kg			Minimum Inhibitory Concentration (M.I.C.) ([3]; Staph. aureus A15097 (Meth-Res)): 125 µg/mL
C[C@@H](O)[C@H]1C(=O)N2C(C(=O)O)=C(COCCN)S[C@H]12 (relative stereo) [Example 66, (1'R,5R, 6S and 1'S,5S,6R) 6-(1'-Hydroxyethyl)-2-(2-aminoethoxymethyl)penem-3-carboxylic Acid (isomer B)]																					ED50 (S. aureus A9537; 1.1 × 10^6 organisms): 0.12 mg/kg
C[C@@H](O)[C@H]1C(=O)N2C(C(=O)O)=C(CN)S[C@H]12 (relative stereo) [Example 62, (1'R,5R,6S and 1'S,5S,6R) 2-Aminomethyl-6-(1'-hydroxy-1'-ethyl)-penem-3-carboxylic Acid (isomer B)]	0.03 µg/mL (≈ 0.123 µM)	0.5 µg/mL (≈ 2.05 µM)	0.03 µg/mL (≈ 0.123 µM)	0.25 µg/mL	0.25 µg/mL (≈ 1.02 µM)	0.5 µg/mL (≈ 2.05 µM)	32 µg/mL (≈ 131 µM)	8 µg/mL (≈ 32.8 µM)	8 µg/mL (≈ 32.8 µM)	16 µg/mL (≈ 65.5 µM)	32 µg/mL (≈ 131 µM)	2 µg/mL (≈ 8.19 µM)	2 µg/mL (≈ 8.19 µM)	16 µg/mL (≈ 65.5 µM)	32 µg/mL (≈ 131 µM)	2 µg/mL (≈ 8.19 µM)	2 µg/mL (≈ 8.19 µM)		1 µg/mL (≈ 4.09 µM)	2 µg/mL (≈ 8.19 µM)	ED50 (S. aureus A9537; 8.6 × 10^5 organisms): 1 mg/kg
C[C@@H](O)[C@H]1C(=O)N2C(C(=O)O)=C(CCCCN)S[C@H]12 (relative stereo) [Example 64, (1'R,5R,6S and 1'S,5S,6R)-2-(4-Aminobutyl)-6-(1'-hydroxy-ethyl)-penem-3-carboxylic Acid (isomer B)]	0.016 µg/mL (≈ 0.0559 µM)	0.03 µg/mL (≈ 0.105 µM)	0.06 µg/mL (≈ 0.21 µM)	0.13 µg/mL	0.13 µg/mL (≈ 0.454 µM)	0.25 µg/mL (≈ 0.873 µM)	4 µg/mL (≈ 14 µM)	2 µg/mL (≈ 6.98 µM)	2 µg/mL (≈ 6.98 µM)	4 µg/mL (≈ 14 µM)	4 µg/mL (≈ 14 µM)	4 µg/mL (≈ 14 µM)	4 µg/mL (≈ 14 µM)	4 µg/mL (≈ 14 µM)	4 µg/mL (≈ 14 µM)	4 µg/mL (≈ 14 µM)	2 µg/mL (≈ 6.98 µM)	0.04 mg/kg	16 µg/mL (≈ 55.9 µM)	16 µg/mL (≈ 55.9 µM)	
O=C(O)C1=C(C(F)(F)F)SC2CC(=O)N12 (stereo not shown) [Example 17, Sodium 2-Trifluoromethylpenem-3-carboxylate]	> 8 µg/mL	> 8 µg/mL	> 8 µg/mL	> 63 µg/mL			> 125 µg/mL	125 µg/mL		> 125 µg/mL	> 125 µg/mL	> 125 µg/mL	> 125 µg/mL	> 125 µg/mL	> 125 µg/mL					125 µg/mL	MIC [2, 10]: > 125 µg/mL; MIC [3, 11]: > 125 µg/mL; MIC (E. coli A-20341-1; [12]): > 125 µg/mL; MIC (Pr. vulgaris A-9716): > 125 µg/mL; MIC (Ent. cloacae A-9656; Enterobacter cloacae A9656): > 125 µg/mL; MIC (Ps. aeruginosa A-21213): 125 µg/mL; MIC (Proteus rettgeri A21203; Proteus rettgeri A21203): 125 µg/mL
O=C([O-])C1=C(Cc2ccco2)S[C@@H]2CC(=O)N12.[Na+] [Preparation 18, Sodium 2-(2-Furylmethyl)penem-3-carboxylate]	0.06 µg/mL	0.25 µg/mL	0.5 µg/mL	> 63 µg/mL			63 µg/mL	2 µg/mL		32 µg/mL	> 125 µg/mL	2 µg/mL	8 µg/mL	32 µg/mL	16 µg/mL					> 125 µg/mL	MIC [2, 10]: 1 µg/mL; MIC [3, 11]: 16 µg/mL; MIC (E. coli A-20341-1; [12]): > 125 µg/mL; MIC (Pr. vulgaris A-9716): 2 µg/mL; MIC (Ent. cloacae A-9656; Enterobacter cloacae A9656): 32 µg/mL; MIC (Ps. aeruginosa A-21213): > 125 µg/mL; MIC (Proteus rettgeri A21203; Proteus rettgeri A21203): 4 µg/mL
